Reference: US20260309717A1, “PROXIMITY INDUCING SYSTEM AND USES THEREOF” (SORBONNE UNIVERSITE, priority 2022, published 2026)

Legend:
[1] = molecular target: T1, ^FIREmate and ^FIREtag (fused to FRB and FKBP) (Halorhodospira halophila, UniProt P16113, A30V/C69G/D97P/F96I, form not given/G21E/G25R/K17N/M100R/M109L/Q41L/Q99S/S72T/T101G/V83A/Y94W/Y98T); assay: Flow cytometry of fluorescent ternary assembly formation in HEK293T cells co-expressing FKBP-^FIREtag and FRB-^FIREmate; type: cell-based
T1 sequence (P16113 1-114 A30V/C69G/D97P/F96I/G21E/G25R/K17N/M100R/M109L/Q41L/Q99S/S72T/T101G/V83A/Y94W/Y98T): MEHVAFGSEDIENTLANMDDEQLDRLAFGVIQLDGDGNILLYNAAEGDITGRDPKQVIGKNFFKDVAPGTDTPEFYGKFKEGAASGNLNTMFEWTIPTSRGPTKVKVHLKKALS
Method: FIGS. 2A and 2B are graphs illustrating the fluorogen-dependent interaction between the two polypeptides ^FIREmate and ^FIREtag. The graphs show the normalized average fluorescence detected from about 50,000 HEK293T cells co-expressing the FK506-binding protein (FKBP) fused to ^FIREtag and the FKBP-rapamycin-binding domain of mammalian target of rapamycin (FRB) fused to ^FIREmate treated without (triangles) or with (squares) 500 nM of rapamycin, and with 1, 5, 10, 25 or 50 μM of HBR-2,5DM (2A) or HMBR (2B). Data represent the mean values±SD of three independent experiments.
The formation of a fluorescent ternary assembly was assessed by flow cytometry in HEK293 cells expressing ^FIREmate and ^FIREtag fused to the C-termini of FKBP (FK506-binding protein) and FRB (FKBP-rapamycin-binding domain of mammalian target of rapamycin), […]. FKBP and FRB are able to dimerize upon addition of rapamycin. Treatment of the HEK293 cells with rapamycin is thus expected to induce the dimerization of FKBP and FRB, and subsequently to induce proximity between ^FIREtag and ^FIREmate.

[2] = molecular target: T2, FKBP-caged^FIREtag / FRB-^FIREmate (Halorhodospira halophila, UniProt P16113, A30V/C69G/D97P/F96I, form not given/G21E/G25R/K17N/M100R/M109L/Q41L/Q99S/S72T/T101G/V83A/Y94W/Y98T); assay: Flow cytometry of ternary assembly formation with caged^FIREtag, HEK293T cells; type: cell-based
T2 construct: FKBP-caged FIREtag (PYP 2-114 C69G cage) and FRB-FIREmate co-expressed in HEK293T cells
T2 sequence (P16113 1-114 A30V/C69G/D97P/F96I/G21E/G25R/K17N/M100R/M109L/Q41L/Q99S/S72T/T101G/V83A/Y94W/Y98T): T1 sequence (P16113 1-114 A30V/C69G/D97P/F96I/G21E/G25R/K17N/M100R/M109L/Q41L/Q99S/S72T/T101G/V83A/Y94W/Y98T)
Source text: FIG. 10 is a graph illustrating the fluorogen-dependent interaction between caged ^FIREtag and ^FIREmate. […] Data represent the mean values±SD of 3 independent experiments.
Although, as indicated above, no self-complementation between ^FIREtag and ^FIREmate could be observed in the absence of fluorogen (see FIG. 3), a caged FIREt was designed to prevent any interaction with ^FIREmate in the absence of fluorogen, even at high expression levels. To cage ^FIREtag, the N-terminal domain 2-114 of Halorhodospira halophila photoactive yellow protein (PYP) C69G (corresponding to SEQ ID NO: 21) was fused to ^FIREtag. The intramolecular interaction between ^FIREtag and the N-terminal domain 2-114 of H. halophila PYP C69G induces the folding of the caged^FIREtag protein, thus preventing any intermolecular interaction of the caged^FIREtag with ^FIREmate. The fusion proteins FKBP-caged^FIREtag and FRB-^FIREmate were co-expressed in HEK293T cells. The cells were then treated with the fluorogens HBR-2,5DM at various concentrations (1, 5, 10, 25 or 50 μM as indicated), in the presence or absence of rapamycin.

With `Cc1cc(/C=C2\SC(=S)NC2=O)c(C)cc1O` [HBR-2,5DM, (Z)-5-(4-hydroxy-2,5-dimethylbenzylidene)-2-thioxo-1,3-thiazolidin-4-one] the “dimerization of FKBP and FRB (induced proximity)” value ([1]; absence of rapamycin) was “able to induce the dimerization of FKBP and FRB”, the “formation of a ternary fluorescent assembly” value ([1]; fluorogen 1, 5, 10, 25 or 50 μM, HEK293 cells) was “induced the formation of a ternary fluorescent assembly at all tested fluorogen concentrations” and the “dependence of ternary fluorescent assembly formation on rapamycin (initial proximity)” value ([1]; with or without 500 nM rapamycin, fluorogen 1-50 μM) was “regardless of the presence or absence of rapamycin”. The “formation of fluorescent ternary assembly with caged^FIREtag and ^FIREmate” value ([2]; 1, 5, 10, 25 or 50 μM, even in absence of rapamycin) was “could still form a fluorescent ternary assembly” and the “concentration required to reach full ternary assembly with caged^FIREtag” value ([2]; absence of rapamycin) was “higher concentrations of HBR-2,5DM were required to reach full ternary assembly in absence of rapamycin”.
